ChEMBL document CHEMBL1141828, “Artoindonesianins A and B, two new prenylated flavones from the root of Artocarpus champeden” (J Nat Prod, 1999)
In brackets after ≈: the same amount, converted by molar mass.

Tested on: P388
Experiment: Cytotoxicity against mouse P388 cells by microculture tetrazolium assay
Assay type: functional, cell-based

How did the IC50 turn out when `CC(C)=CCC/C(C)=C/Cc1c2c(c(O)c3c(=O)c4c(oc13)-c1c(O)cc(O)c3c1C(C4)C(C)(C)O3)C=CC(C)(C)O2` (configuration not stated) [ARTOINDONESIANIN A] was run?
Its IC50 is 21 µg/mL (≈ 36.8 µM).

`COc1cc2oc3c(c(=O)c2c(O)c1/C=C/C(C)C)CC(C(C)(C)OO)Oc1cc(O)ccc1-3` (configuration not stated) [ARTOINDONESIANIN B] was tested. Which IC50 did it give?
The IC50 was 3.9 µg/mL (≈ 8.32 µM).
